ChEMBL document CHEMBL3045835, “Comparative study of conventional and microwave-assisted synthesis of some Schiff bases and their potential as antimicrobial agents” (2012)
In brackets after ≈: the same amount, converted by molar mass.

Tests used:
Type in all cases: functional
Penicillium chrysogenum [1] = assay: Antifungal activity against Penicillium chrysogenum MTCC 161 at 500 ug/ml after 18 hr by cup-plate method; conditions: MTCC 161, 18 h, read-out: DIZ
Penicillium chrysogenum [2] = assay: Antifungal activity against Penicillium chrysogenum MTCC 161 at 1000 ug/ml after 18 hr by cup-plate method; conditions: MTCC 161, 18 h, read-out: DIZ
Bacillus subtilis [3] = assay: Antibacterial activity against Bacillus subtilis MTCC 441 after 24 hr by broth dilution method; conditions: MTCC 441, 24 h
Escherichia coli [4] = assay: Antibacterial activity against Escherichia coli MTCC 1573 at 1500 ug/ml after 18 hr by cup-plate method; conditions: MTCC 1573, 18 h, read-out: DIZ
Pseudomonas fluorescens [5] = assay: Antibacterial activity against Pseudomonas fluorescens MTCC 2421 at 200 ug/ml after 18 hr by cup-plate method; conditions: MTCC 2421, 18 h, read-out: DIZ
Micrococcus luteus [6] = assay: Antibacterial activity against Micrococcus luteus MTCC 1538 at 1500 ug/ml after 18 hr by cup-plate method; conditions: MTCC 1538, 18 h, read-out: DIZ
Escherichia coli [7] = assay: Antibacterial activity against Escherichia coli MTCC 1573 after 24 hr by broth dilution method; conditions: MTCC 1573, 24 h
Pseudomonas fluorescens [8] = assay: Antibacterial activity against Pseudomonas fluorescens MTCC 2421 at 100 ug/ml after 18 hr by cup-plate method; conditions: MTCC 2421, 18 h, read-out: DIZ
Aspergillus niger [9] = assay: Antifungal activity against Aspergillus niger MTCC 2546 at 500 ug/ml after 18 hr by cup-plate method; conditions: MTCC 2546, 18 h, read-out: DIZ
Micrococcus luteus [10] = assay: Antibacterial activity against Micrococcus luteus MTCC 1538 at 100 ug/ml after 18 hr by cup-plate method; conditions: MTCC 1538, 18 h, read-out: DIZ
Pseudomonas fluorescens [11] = assay: Antibacterial activity against Pseudomonas fluorescens MTCC 2421 at 1000 ug/ml after 18 hr by cup-plate method; conditions: MTCC 2421, 18 h, read-out: DIZ
Pseudomonas aeruginosa [12] = assay: Antibacterial activity against Pseudomonas aeruginosa MTCC 424 after 24 hr by broth dilution method; conditions: MTCC 424, 24 h
Micrococcus luteus [13] = assay: Antibacterial activity against Micrococcus luteus MTCC 1538 after 24 hr by broth dilution method; conditions: MTCC 1538, 24 h
Escherichia coli [14] = assay: Antibacterial activity against Escherichia coli MTCC 1573 at 1000 ug/ml after 18 hr by cup-plate method; conditions: MTCC 1573, 18 h, read-out: DIZ
Micrococcus luteus [15] = assay: Antibacterial activity against Micrococcus luteus MTCC 1538 at 500 ug/ml after 18 hr by cup-plate method; conditions: MTCC 1538, 18 h, read-out: DIZ
Penicillium chrysogenum [16] = assay: Antifungal activity against Penicillium chrysogenum MTCC 161 at 1500 ug/ml after 18 hr by cup-plate method; conditions: MTCC 161, 18 h, read-out: DIZ
Aspergillus niger [17] = assay: Antifungal activity against Aspergillus niger MTCC 2546 at 1500 ug/ml after 18 hr by cup-plate method; conditions: MTCC 2546, 18 h, read-out: DIZ
Pseudomonas aeruginosa [18] = assay: Antibacterial activity against Pseudomonas aeruginosa MTCC 424 at 1500 ug/ml after 18 hr by cup-plate method; conditions: MTCC 424, 18 h, read-out: DIZ
Bacillus pumilus [19] = assay: Antibacterial activity against Bacillus pumilus MTCC 1456 after 24 hr by broth dilution method; conditions: MTCC 1456, 24 h
Staphylococcus aureus [20] = assay: Antibacterial activity against Staphylococcus aureus MTCC 1430 at 1500 ug/ml after 18 hr by cup-plate method; conditions: MTCC 1430, 18 h, read-out: DIZ
Staphylococcus aureus [21] = assay: Antibacterial activity against Staphylococcus aureus MTCC 1430 at 200 ug/ml after 18 hr by cup-plate method; conditions: MTCC 1430, 18 h, read-out: DIZ
Aspergillus niger [22] = assay: Antifungal activity against Aspergillus niger MTCC 2546 after 24 hr by broth dilution method; conditions: MTCC 2546, 24 h
Staphylococcus aureus [23] = assay: Antibacterial activity against Staphylococcus aureus MTCC 1430 at 1000 ug/ml after 18 hr by cup-plate method; conditions: MTCC 1430, 18 h, read-out: DIZ
Pseudomonas fluorescens [24] = assay: Antibacterial activity against Pseudomonas fluorescens MTCC 2421 at 1500 ug/ml after 18 hr by cup-plate method; conditions: MTCC 2421, 18 h, read-out: DIZ
Micrococcus luteus [25] = assay: Antibacterial activity against Micrococcus luteus MTCC 1538 at 200 ug/ml after 18 hr by cup-plate method; conditions: MTCC 1538, 18 h, read-out: DIZ
Staphylococcus aureus [26] = assay: Antibacterial activity against Staphylococcus aureus MTCC 1430 at 100 ug/ml after 18 hr by cup-plate method; conditions: MTCC 1430, 18 h, read-out: DIZ
Staphylococcus aureus [27] = assay: Antibacterial activity against Staphylococcus aureus MTCC 1430 after 24 hr by broth dilution method; conditions: MTCC 1430, 24 h
Aspergillus niger [28] = assay: Antifungal activity against Aspergillus niger MTCC 2546 at 1000 ug/ml after 18 hr by cup-plate method; conditions: MTCC 2546, 18 h, read-out: DIZ
Micrococcus luteus [29] = assay: Antibacterial activity against Micrococcus luteus MTCC 1538 at 1000 ug/ml after 18 hr by cup-plate method; conditions: MTCC 1538, 18 h, read-out: DIZ
Pseudomonas fluorescens [30] = assay: Antibacterial activity against Pseudomonas fluorescens MTCC 2421 after 24 hr by broth dilution method; conditions: MTCC 2421, 24 h
Penicillium chrysogenum [31] = assay: Antifungal activity against Penicillium chrysogenum MTCC 161 after 24 hr by broth dilution method; conditions: MTCC 161, 24 h
Escherichia coli [32] = assay: Antibacterial activity against Escherichia coli MTCC 1573 at 500 ug/ml after 18 hr by cup-plate method; conditions: MTCC 1573, 18 h, read-out: DIZ
Staphylococcus aureus [33] = assay: Antibacterial activity against Staphylococcus aureus MTCC 1430 at 500 ug/ml after 18 hr by cup-plate method; conditions: MTCC 1430, 18 h, read-out: DIZ
Pseudomonas fluorescens [34] = assay: Antibacterial activity against Pseudomonas fluorescens MTCC 2421 at 500 ug/ml after 18 hr by cup-plate method; conditions: MTCC 2421, 18 h, read-out: DIZ
Aspergillus niger [35] = assay: Antifungal activity against Aspergillus niger MTCC 2546 at 100 ug/ml after 18 hr by cup-plate method; conditions: MTCC 2546, 18 h, read-out: DIZ
Penicillium chrysogenum [36] = assay: Antifungal activity against Penicillium chrysogenum MTCC 161 at 100 ug/ml after 18 hr by cup-plate method; conditions: MTCC 161, 18 h, read-out: DIZ
Bacillus subtilis [37] = assay: Antibacterial activity against Bacillus subtilis MTCC 441 at 100 ug/ml after 18 hr by cup plate method; conditions: MTCC 441, 18 h, read-out: DIZ
Pseudomonas aeruginosa [38] = assay: Antibacterial activity against Pseudomonas aeruginosa MTCC 424 at 100 ug/ml after 18 hr by cup-plate method; conditions: MTCC 424, 18 h, read-out: DIZ
Escherichia coli [39] = assay: Antibacterial activity against Escherichia coli MTCC 1573 at 100 ug/ml after 18 hr by cup-plate method; conditions: MTCC 1573, 18 h, read-out: DIZ
Bacillus pumilus [40] = assay: Antibacterial activity against Bacillus pumilus MTCC 1456 at 100 ug/ml after 18 hr by cup-plate method; conditions: MTCC 1456, 18 h, read-out: DIZ

## C(=N\c1ccccn1)/c1cccc2ccccc12
Penicillium chrysogenum [1]
  zone of inhibition at 500 µg/mL: 10 mm
Penicillium chrysogenum [2]
  zone of inhibition at 1000 µg/mL: 12 mm
Bacillus subtilis [3]
  MIC: 500 µg/mL (≈ 2150 µM)
Escherichia coli [4]
  zone of inhibition at 1500 µg/mL: 16 mm
Pseudomonas fluorescens [5]
  zone of inhibition at 200 µg/mL: 13 mm
Micrococcus luteus [6]
  zone of inhibition at 1500 µg/mL: 24 mm
Escherichia coli [7]
  MIC: 400 µg/mL (≈ 1720 µM)
Pseudomonas fluorescens [8]
  zone of inhibition at 100 µg/mL: 11 mm
Aspergillus niger [9]
  zone of inhibition at 500 µg/mL: 12 mm
Micrococcus luteus [10]
  zone of inhibition at 100 µg/mL: 11 mm
Pseudomonas fluorescens [11]
  zone of inhibition at 1000 µg/mL: 17 mm
Pseudomonas aeruginosa [12]
  MIC: 500 µg/mL (≈ 2150 µM)
Micrococcus luteus [13]
  MIC: 400 µg/mL (≈ 1720 µM)
Escherichia coli [14]
  zone of inhibition at 1000 µg/mL: 14 mm
Micrococcus luteus [15]
  zone of inhibition at 500 µg/mL: 17 mm
Penicillium chrysogenum [16]
  zone of inhibition at 1500 µg/mL: 17 mm
Aspergillus niger [17]
  zone of inhibition at 1500 µg/mL: 15 mm
Pseudomonas aeruginosa [18]
  zone of inhibition at 1500 µg/mL: 15 mm
Bacillus pumilus [19]
  MIC: 500 µg/mL (≈ 2150 µM)
Staphylococcus aureus [20]
  zone of inhibition at 1500 µg/mL: 20 mm
Staphylococcus aureus [21]
  zone of inhibition at 200 µg/mL: 12 mm
Aspergillus niger [22]
  MIC: 500 µg/mL (≈ 2150 µM)
Staphylococcus aureus [23]
  zone of inhibition at 1000 µg/mL: 16 mm
Pseudomonas fluorescens [24]
  zone of inhibition at 1500 µg/mL: 19 mm
Micrococcus luteus [25]
  zone of inhibition at 200 µg/mL: 12 mm
Staphylococcus aureus [26]
  zone of inhibition at 100 µg/mL: 11 mm
Staphylococcus aureus [27]
  MIC: 400 µg/mL (≈ 1720 µM)
Aspergillus niger [28]
  zone of inhibition at 1000 µg/mL: 13 mm
Micrococcus luteus [29]
  zone of inhibition at 1000 µg/mL: 20 mm
Pseudomonas fluorescens [30]
  MIC: 300 µg/mL (≈ 1290 µM)
Penicillium chrysogenum [31]
  MIC: 500 µg/mL (≈ 2150 µM)
Escherichia coli [32]
  zone of inhibition at 500 µg/mL: 11 mm
Staphylococcus aureus [33]
  zone of inhibition at 500 µg/mL: 14 mm
Pseudomonas fluorescens [34]
  zone of inhibition at 500 µg/mL: 15 mm

## OC(Cn1cncn1)(Cn1cncn1)c1ccc(F)cc1F [FLUCONAZOLE]
Aspergillus niger [35]
  zone of inhibition at 100 µg/mL: 28 mm
Penicillium chrysogenum [36]
  zone of inhibition at 100 µg/mL: 16 mm

## CCn1cc(C(=O)O)c(=O)c2cc(F)c(N3CCNCC3)cc21 [NORFLOXACIN]
Bacillus subtilis [37]
  zone of inhibition at 100 µg/mL: 23 mm
Bacillus subtilis [3]
  MIC: 50 µg/mL (≈ 157 µM)
Escherichia coli [7]
  MIC: 50 µg/mL (≈ 157 µM)
Pseudomonas fluorescens [8]
  zone of inhibition at 100 µg/mL: 25 mm
Micrococcus luteus [10]
  zone of inhibition at 100 µg/mL: 26 mm
Pseudomonas aeruginosa [38]
  zone of inhibition at 100 µg/mL: 28 mm
Pseudomonas aeruginosa [12]
  MIC: 50 µg/mL (≈ 157 µM)
Micrococcus luteus [13]
  MIC: 50 µg/mL (≈ 157 µM)
Bacillus pumilus [19]
  MIC: 50 µg/mL (≈ 157 µM)
Staphylococcus aureus [26]
  zone of inhibition at 100 µg/mL: 25 mm
Escherichia coli [39]
  zone of inhibition at 100 µg/mL: 36 mm
Staphylococcus aureus [27]
  MIC: 50 µg/mL (≈ 157 µM)
Bacillus pumilus [40]
  zone of inhibition at 100 µg/mL: 28 mm
Pseudomonas fluorescens [30]
  MIC: 50 µg/mL (≈ 157 µM)
